From ChEMBL document CHEMBL4673356, “Assessing the cellular toxicity of peptide inhibitors of intracellular protein-protein interactions by microinjection” (Bioorg Med Chem, 2021)
Where a SMILES comes first, the peptide text is derived from it. [ ]: non-standard residue; d: D form. The star is where a group is joined. X1 = CCN1/C(=C/C=C/C=C/C2=[N+](CCCCCC(=O)*)c3ccc(S(=O)(=O)[O-])cc3C2(C)C)C(C)(C)c2cc(S(=O)(=O)O)ccc21; βAla = NCCC(=O)O

Tests used:
[1] = Stability of the compound in human AD293 cells assessed as intact compound remaining at 20 uM measured after 5 hrs by LC-MS analysis; format: ADME, cell-based; conditions: read-out: Stabilty
AD293 [2] = experiment: Cytotoxicity against human AD293 cells assessed as cell viability at 2.7 to 273 uM co-treated via microinjection with Cy5-BSA into nucleus and measured after 5 hrs by Cy5-BSA/PI staining based fluorescence analysis; conditions: ad293, 5 h, dose 2.7-273 µM
AD293 [3] = experiment: Cytotoxicity against human AD-293 cells assessed as morphologically intact viable cells at 2.7 to 273 uM co-treated via microinjection with Cy5-BSA into cytoplasm and measured after 5 hrs by Cy5-BSA/PI staining based fluorescence analysis; format: cell-based; conditions: ad293, 5 h, dose 2.7-273 µM
[4] = Inhibition of iNOS (unknown origin) and SPSB2 interaction assessed as binding affinity to murine SPSB2 immobilized on CM5 chip by SPR assay; design: species or system Mus musculus
AD293 [5] = experiment: Cytotoxicity against human AD293 cells assessed as cell viability at 200 uM; format: cell-based; conditions: ad293, 200 µM
[6] = Stability of the compound in human AD293 cells assessed as intact compound remaining at 20 uM measured after 24 hrs by LC-MS analysis; format: ADME, cell-based; conditions: read-out: Stabilty
AD293 [7] = experiment: Cytotoxicity against human AD293 cells assessed as cell viability at 2.7 to 273 uM co-treated via microinjection with Cy5-BSA into cytoplasm and measured after 5 hrs by Cy5-BSA/PI staining based fluorescence analysis; conditions: ad293, 5 h, dose 2.7-273 µM
[8] = Drug localization in cytosol of human AD293 cells at 7.3 uM treated via microinjection into cytoplasm measured up to 5 hrs by confocal microscopic analysis; format: ADME, subcellular

| SMILES | remaining at 5 h, 20 µM [1] [%] | Activity (AD293 [2]) | Activity (AD293 [3]) | Kd [4] [µM] | Activity (AD293 [5]) | remaining at 24 h, 20 µM [6] [%] | Activity (AD293 [7]) | Drug uptake [8] |
| --- | --- | --- | --- | --- | --- | --- | --- | --- |
| CC[C@H](C)[C@@H]1NC(=O)[C@H](CC(=O)O)NC(=O)[C@H](Cc2c[nH]c3ccccc23)NC(=O)CCNC(=O)[C@H](CC(N)=O)NC(=O)[C@H](CC(N)=O)NC(=O)[C@H](CC(N)=O)NC1=O (cyclo(DINNN[βAla]W)) | 97.5 | Non-Toxic | Non-Toxic | 0.021 | Non-Toxic | 94.7 | Non-Toxic |  |
| CCN1/C(=C/C=C/C=C/C2=[N+](CCCCCC(=O)NCCCC[C@@H]3NC(=O)[C@H](CC(=O)O)NC(=O)[C@H](Cc4c[nH]c5ccccc45)NC(=O)CCNC(=O)[C@H](CC(N)=O)NC(=O)[C@H](CC(N)=O)NC(=O)[C@H](CC(N)=O)NC3=O)c3ccc(S(=O)(=O)[O-])cc3C2(C)C)C(C)(C)c2cc(S(=O)(=O)O)ccc21 (cyclo(DK(X1)NNN[βAla]W)) |  |  |  | 0.11 |  |  |  | Active |
